Data as given in ChEMBL document CHEMBL1932919, “Dirlotapide as a model substrate to refine structure-based drug design strategies on CYP3A4-catalyzed metabolism” (Bioorg Med Chem Lett, 2012).

Tested on: Liver microsomes
Test: Drug metabolism in human liver microsomes at 20 mM
Type: ADME, Microsome
Details: 20000 µM; call rule not given here

CN(Cc1ccccc1)C(=O)[C@@H](NC(=O)c1cc2cc(NC(=O)c3ccccc3-c3ccc(C(F)(F)F)cc3)ccc2n1C)c1ccccc1 [DIRLOTAPIDE]
Drug metabolism: Active
